According to patent publication US11203574B2 (BioCryst Pharmaceuticals, Inc., priority 2014, dated 2021):

molecular target: human plasma kallikrein (Homo sapiens (Human), UniProt P03952); experiment: Plasma kallikrein activity assay (chromogenic substrate S2302); type: biochemical; settings: 2 nM kallikrein, 80 μM S2302, 30° C., pH 7.8; Ki by Cheng-Prusoff equation; values given as ranges; read-out: Ki
Sequence (P03952 whole entry, looked up): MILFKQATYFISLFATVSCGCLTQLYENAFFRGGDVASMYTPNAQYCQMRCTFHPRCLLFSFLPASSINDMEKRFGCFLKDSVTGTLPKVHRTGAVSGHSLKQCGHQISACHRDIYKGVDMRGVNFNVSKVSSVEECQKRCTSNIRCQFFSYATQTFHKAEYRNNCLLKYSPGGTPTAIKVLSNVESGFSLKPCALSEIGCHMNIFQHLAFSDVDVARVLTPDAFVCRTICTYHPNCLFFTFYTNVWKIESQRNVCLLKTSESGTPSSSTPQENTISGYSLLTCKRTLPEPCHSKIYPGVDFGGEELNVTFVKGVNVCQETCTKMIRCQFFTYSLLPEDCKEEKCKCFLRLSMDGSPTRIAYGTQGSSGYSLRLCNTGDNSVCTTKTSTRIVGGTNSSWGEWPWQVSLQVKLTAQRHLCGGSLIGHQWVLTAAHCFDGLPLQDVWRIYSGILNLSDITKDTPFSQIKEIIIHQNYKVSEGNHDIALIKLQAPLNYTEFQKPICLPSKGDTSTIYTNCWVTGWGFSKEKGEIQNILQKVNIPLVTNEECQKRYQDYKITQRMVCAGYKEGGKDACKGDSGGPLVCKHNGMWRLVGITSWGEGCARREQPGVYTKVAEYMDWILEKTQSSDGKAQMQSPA
Sequence (P03952 whole entry partner, looked up): as the sequence (P03952 whole entry, looked up) above

Question: `NCc1cccc(-n2nc(C(F)(F)F)cc2C(=O)Nc2cccc(C(NCC3CC3)c3ccccc3F)c2)c1` (stereo not shown) [117e, 1-(3-(aminomethyl)phenyl)-N-(3-((cyclopropylmethylamino)(2-fluorophenyl)methyl)phenyl)-3-(trifluoromethyl)-1H-pyrazole-5-carboxamide] was tested. Which Ki did it give?
Answer: Its Ki is 0.0001 to 0.05 µM.

Question: Which Ki does the source give for `CCC(=O)NC(CCC1CC1)(c1cccnc1)c1ccc(F)c(NC(=O)c2cc(C(F)(F)F)nn2-c2cccc(CN)c2)c1` (single isomer, unassigned; (-)) [244i, (−)-1-(3-(aminomethyl)phenyl)-N-(5-(3-cyclopropyl-1-propionamido-1-(pyridin-3-yl)propyl)-2-fluorophenyl)-3-(trifluoromethyl)-1H-pyrazole-5-carboxamide] here?
Answer: The Ki was 0.0001 to 0.05 µM.

Question: With `N#Cc1ccc(C(N)(CCC2CC2)c2ccc(F)c(NC(=O)c3cc(C(F)(F)F)nn3-c3ccc4ccnc(N)c4c3)c2)cc1` (single isomer, unassigned; (+)) [254c, (+)-N-(5-(1-amino-1-(4-cyanophenyl)-3-cyclopropylpropyl)-2-fluorophenyl)-1-(1-aminoisoquinolin-7-yl)-3-(trifluoromethyl)-1H-pyrazole-5-carboxamide] as the compound, how does the Ki read?
Answer: The Ki was 0.0001 to 0.05 µM.

Question: Which Ki does the source give for `NCc1cccc(-n2nc(C(F)(F)F)cc2C(=O)Nc2cccc(C(OCC3CC3)c3nccs3)c2)c1` (stereo not shown) [82f, 1-(3-(aminomethyl)phenyl)-N-(3-((cyclopropylmethoxy)(thiazol-2-yl)methyl)phenyl)-3-(trifluoromethyl)-1H-pyrazole-5-carboxamide] here?
Answer: Its Ki is 0.0001 to 0.05 µM.

Question: `NCc1cccc(-n2nc(C(F)(F)F)cc2C(=O)Nc2cccc(C(O)(CCC3CC3)c3cccnc3)c2)c1` (single isomer, unassigned; (-)) [47g, (−)-1-(3-(aminomethyl)phenyl)-N-(3-(3-cyclopropyl-1-hydroxy-1-(pyridin-3-yl)propyl)phenyl)-3-(trifluoromethyl)-1H-pyrazole-5-carboxamide] was tested. Which Ki did it give?
Answer: Its Ki is 0.0001 to 0.05 µM.

Question: For `NCc1cccc(-n2nc(C(F)(F)F)cc2C(=O)Nc2cc(C(NCC3CC3)c3nccs3)ccc2F)c1` (stereo not shown) [101e, 1-(3-(Aminomethyl)phenyl)-N-(5-((cyclopropylmethylamino)(thiazol-2-yl)methyl)-2-fluorophenyl)-3-(trifluoromethyl)-1H-pyrazole-5-carboxamide], which Ki is on record?
Answer: Its Ki is 0.0001 to 0.05 µM.

Question: Which Ki does the source give for `NCc1cccc(-n2nc(C(F)(F)F)cc2C(=O)Nc2cccc(C(OCC3CC3)c3ccccn3)c2)c1` (single isomer, unassigned; (-)) [43g, (−)-1-(3-(aminomethyl)phenyl)-N-(3-((cyclopropylmethoxy)(pyridin-2-yl)methyl)-phenyl)-3-(trifluoromethyl)-1H-pyrazole-5-carboxamide] here?
Answer: Its Ki is 0.0001 to 0.05 µM.

Question: Which Ki does the source give for `N#Cc1cccc(C(N)(CCC2CC2)c2ccc(F)c(NC(=O)c3cc(C(F)(F)F)nn3-c3ccc4ccnc(N)c4c3)c2)c1` (single isomer, unassigned; (+)) [256a, (+)-N-(5-(1-amino-1-(3-cyanophenyl)-3-cyclopropylpropyl)-2-fluorophenyl)-1-(1-aminoisoquinolin-7-yl)-3-(trifluoromethyl)-1H-pyrazole-5-carboxamide] here?
Answer: Its Ki is 0.0001 to 0.05 µM.

Question: `NCc1cccc(-n2nc(C(F)(F)F)cc2C(=O)Nc2cccc(C(NCC3CC3)c3c(F)cccc3F)c2)c1` (stereo not shown) [198f, 1-(3-(aminomethyl)phenyl)-N-(3-(((cyclopropylmethyl)amino)(2,6-difluorophenyl)methyl)phenyl)-3-(trifluoromethyl)-1H-pyrazole-5-carboxamide] was tested. Which Ki did it give?
Answer: Its Ki is 0.0001 to 0.05 µM.

Question: How did the Ki turn out when `NCc1cccc(-n2nc(C(F)(F)F)cc2C(=O)Nc2cccc(C(NCC3CC3)c3cccc(O)c3)c2)c1` (stereo not shown) [137a, 1-(3-(Aminomethyl)phenyl)-N-(3-((cyclopropylmethylamino)(3-hydroxyphenyl)methyl)phenyl)-3-(trifluoromethyl)-1H-pyrazole-5-carboxamide] was run?
Answer: The Ki was 0.0001 to 0.05 µM.

Question: For `CS(=O)(=O)c1ccc(C(NCC2CC2)c2cccc(NC(=O)c3cc(C(F)(F)F)nn3-c3cccc(CN)c3)c2)cc1` (stereo not shown) [113f, 1-(3-(aminomethyl)phenyl)-N-(3-((cyclopropylmethylamino)(4-(methylsulfonyl)phenyl)methyl)phenyl)-3-(trifluoromethyl)-1H-pyrazole-5-carboxamide], which Ki is on record?
Answer: The Ki was 0.0001 to 0.05 µM.

Question: With `CCOC(c1ccccc1)c1cccc(NC(=O)c2cc(C(F)(F)F)nn2-c2cccc(CN)c2)c1` (stereo not shown) [18g, 1-(3-(aminomethyl)phenyl)-N-(3-(ethoxy(phenyl)methyl)phenyl)-3-(trifluoromethyl)-1H-pyrazole-5-carboxamide] as the compound, how does the Ki read?
Answer: Its Ki is 0.05 to 0.1 µM.

Question: How did the Ki turn out when `COc1ccc(C(NCC2CC2)c2cccc(NC(=O)c3cc(C(F)(F)F)nn3-c3cccc(CN)c3)c2)cc1` (stereo not shown) [105g, 1-(3-(Aminomethyl)phenyl)-N-(3-(((cyclopropylmethyl)amino)(4-methoxyphenyl)methyl)phenyl)-3-(trifluoromethyl)-1H-pyrazole-5-carboxamide] was run?
Answer: Its Ki is 0.0001 to 0.05 µM.

Question: `NCc1cccc(-n2nc(C(F)(F)F)cc2C(=O)Nc2cc(C(NCC3CC3)c3cccnc3)ccc2Cl)c1` (stereo not shown) [96f, 1-(3-(Aminomethyl)phenyl)-N-(2-chloro-5-((cyclopropylmethylamino)(pyridin-3-yl)methyl)phenyl)-3-(trifluoromethyl)-1H-pyrazole-5-carboxamide] was tested. Which Ki did it give?
Answer: Its Ki is 0.0001 to 0.05 µM.

Question: Which Ki does the source give for `NCc1cccc(C(NCC2CC2)c2ccc(F)c(NC(=O)c3cc(C(F)(F)F)nn3-c3cccc(CN)c3)c2)c1` (stereo not shown) [155c, 1-(3-(aminomethyl)phenyl)-N-(5-((3-(aminomethyl)phenyl)(cyclopropylmethylamino)methyl)-2-fluorophenyl)-3-(trifluoromethyl)-1H-pyrazole-5-carboxamide] here?
Answer: Its Ki is 0.0001 to 0.05 µM.

Question: With `N#Cc1cccc(C(N)(CCC2CC2)c2ccc(F)c(NC(=O)c3cc(C(F)(F)F)nn3-c3cccc(C(=N)N)c3)c2)c1` (single isomer, unassigned; (+)) [237a, (+)-N-(5-(1-amino-1-(3-cyanophenyl)-3-cyclopropylpropyl)-2-fluorophenyl)-1-(3-carbamimidoylphenyl)-3-(trifluoromethyl)-1H-pyrazole-5-carboxamide] as the compound, how does the Ki read?
Answer: Its Ki is 0.0001 to 0.05 µM.

Question: With `Cn1cc(C(NCC2CC2)c2cccc(NC(=O)c3cc(C(F)(F)F)nn3-c3cccc(CN)c3)c2)cn1` (stereo not shown) [104f, 1-(3-(aminomethyl)phenyl)-N-(3-((cyclopropylmethylamino)(1-methyl-1H-pyrazol-4-yl)methyl)phenyl)-3-(trifluoromethyl)-1H-pyrazole-5-carboxamide] as the compound, how does the Ki read?
Answer: The Ki was 0.0001 to 0.05 µM.

Question: For `CC(C)(C)C(=O)NC(CCC1CC1)(c1cccnc1)c1ccc(F)c(NC(=O)c2cc(C(F)(F)F)nn2-c2cccc(CN)c2)c1` (single isomer, unassigned; (-)) [244g, (−)-1-(3-(aminomethyl)phenyl)-N-(5-(3-cyclopropyl-1-pivalamido-1-(pyridin-3-yl)propyl)-2-fluorophenyl)-3-(trifluoromethyl)-1H-pyrazole-5-carboxamide], which Ki is on record?
Answer: Its Ki is 0.0001 to 0.05 µM.

Question: How did the Ki turn out when `NCc1cccc(-n2nc(C(F)(F)F)cc2C(=O)Nc2cccc(C(OCC3CC3)c3ccccc3)c2F)c1` (stereo not shown) [36d, 1-(3-(aminomethyl)phenyl)-N-(3-((cyclopropylmethoxy)(phenyl)methyl)-2-fluorophenyl)-3-(trifluoromethyl)-1H-pyrazole-5-carboxamide] was run?
Answer: The Ki was 0.0001 to 0.05 µM.

Question: `NCc1cccc(-n2nc(C(F)(F)F)cc2C(=O)Nc2cccc(C(OCC3CC3)c3cccc(N)c3)c2)c1` (stereo not shown) [53f, 1-(3-(aminomethyl)phenyl)-N-(3-((3-aminophenyl)(cyclopropyl-methoxy)methyl)phenyl)-3-(trifluoromethyl)-1H-pyrazole-5-carboxamide] was tested. Which Ki did it give?
Answer: Its Ki is 0.0001 to 0.05 µM.

Question: `NCc1cccc(-n2nc(C(F)(F)F)cc2C(=O)Nc2cc(C(NCC3CC3)c3ccc(C(N)=O)cc3)ccc2F)c1` (stereo not shown) [153b, 1-(3-(aminomethyl)phenyl)-N-(5-((4-carbamoylphenyl)(cyclopropylmethyl-amino)methyl)-2-fluorophenyl)-3-(trifluoromethyl)-1H-pyrazole-5-carboxamide] was tested. Which Ki did it give?
Answer: The Ki was 0.0001 to 0.05 µM.

Question: Which Ki does the source give for `NCc1cccc(-n2nc(C(F)(F)F)cc2C(=O)Nc2cccc(C(NCC3CC3)c3ccc4ccccc4c3)c2)c1` (stereo not shown) [128g, 1-(3-(aminomethyl)phenyl)-N-(3-((cyclopropylmethylamino)(naphthalen-2-yl)methyl)phenyl)-3-(trifluoromethyl)-1H-pyrazole-5-carboxamide] here?
Answer: Its Ki is 0.0001 to 0.05 µM.

Question: Which Ki does the source give for `NCc1cccc(-n2nc(C(F)(F)F)cc2C(=O)Nc2cc(C(NCC3CC3)c3cccc(N)c3)ccc2F)c1` (stereo not shown) [131b, 1-(3-(aminomethyl)phenyl)-N-(5-((3-aminophenyl)(cyclopropylmethylamino)methyl)-2-fluorophenyl)-3-(trifluoromethyl)-1H-pyrazole-5-carboxamide] here?
Answer: The Ki was 0.0001 to 0.05 µM.

Question: How did the Ki turn out when `NCc1cccc(-n2nc(C(F)(F)F)cc2C(=O)Nc2cccc(C(NCC3CC3)c3cn[nH]c3)c2)c1` (stereo not shown) [84h, 1-(3-(aminomethyl)phenyl)-N-(3-(((cyclopropylmethyl)amino)(1H-pyrazol-4-yl)methyl)phenyl)-3-(trifluoromethyl)-1H-pyrazole-5-carboxamide] was run?
Answer: Its Ki is 0.0001 to 0.05 µM.

Question: How did the Ki turn out when `Cc1cccc(C(NCC2CC2)c2ccc(F)c(NC(=O)c3cc(C(F)(F)F)nn3-c3cccc(CN)c3)c2)c1` (stereo not shown) [140e, 1-(3-(aminomethyl)phenyl)-N-(5-(((cyclopropylmethyl)amino)(m-tolyl)methyl)-2-fluorophenyl)-3-(trifluoromethyl)-1H-pyrazole-5-carboxamide] was run?
Answer: The Ki was 0.0001 to 0.05 µM.

Question: How did the Ki turn out when `NCc1cccc(-n2nc(C(F)(F)F)cc2C(=O)Nc2cccc(C(OCC3CC3)c3cccnc3)c2)c1` (single isomer, unassigned; (-)) [44e, (−)-1-(3-(aminomethyl)phenyl)-N-(3-((cyclopropylmethoxy)(pyridin-3-yl)methyl)phenyl)-3-(trifluoromethyl)-1H-pyrazole-5-carboxamide] was run?
Answer: The Ki was 0.0001 to 0.05 µM.

Question: With `NCc1cccc(-n2nc(C(F)(F)F)cc2C(=O)Nc2cccc(C(NCC3CC3)c3cccc4ccccc34)c2)c1` (stereo not shown) [129f, 1-(3-(aminomethyl)phenyl)-N-(3-((cyclopropylmethylamino)(naphthalen-1-yl)methyl)phenyl)-3-(trifluoromethyl)-1H-pyrazole-5-carboxamide] as the compound, how does the Ki read?
Answer: Its Ki is 0.0001 to 0.05 µM.

Question: With `NCc1cccc(-n2nc(C(F)(F)F)cc2C(=O)Nc2cccc(C(NCC3CC3)c3c4ccccc4c(Cl)c4ccccc34)c2)c1` (stereo not shown) [118f, 1-(3-(aminomethyl)phenyl)-N-(3-((10-chloroanthracen-9-yl)(cyclopropylmethylamino)methyl)phenyl)-3-(trifluoromethyl)-1H-pyrazole-5-carboxamide] as the compound, how does the Ki read?
Answer: Its Ki is 0.0001 to 0.05 µM.
